ChEMBL document CHEMBL4806968, “Hipk inhibitors and methods of use thereof” (2020)
Activity calls are given as the source filed them. The calls are words filed in the database; no cut-off is given here.

Tests used:
[1] = target: Platelet-derived growth factor receptor beta (Homo sapiens) (UniProt P09619); assay: Inhibition of PDGFR-beta (unknown origin) at 0.5 uM relative to control
[2] = target: T1, Ephrin type-A receptor 8 (Homo sapiens) (UniProt P29322); assay: Inhibition of EPHA8 (unknown origin) at 0.5 uM relative to control
T1 sequence (whole entry): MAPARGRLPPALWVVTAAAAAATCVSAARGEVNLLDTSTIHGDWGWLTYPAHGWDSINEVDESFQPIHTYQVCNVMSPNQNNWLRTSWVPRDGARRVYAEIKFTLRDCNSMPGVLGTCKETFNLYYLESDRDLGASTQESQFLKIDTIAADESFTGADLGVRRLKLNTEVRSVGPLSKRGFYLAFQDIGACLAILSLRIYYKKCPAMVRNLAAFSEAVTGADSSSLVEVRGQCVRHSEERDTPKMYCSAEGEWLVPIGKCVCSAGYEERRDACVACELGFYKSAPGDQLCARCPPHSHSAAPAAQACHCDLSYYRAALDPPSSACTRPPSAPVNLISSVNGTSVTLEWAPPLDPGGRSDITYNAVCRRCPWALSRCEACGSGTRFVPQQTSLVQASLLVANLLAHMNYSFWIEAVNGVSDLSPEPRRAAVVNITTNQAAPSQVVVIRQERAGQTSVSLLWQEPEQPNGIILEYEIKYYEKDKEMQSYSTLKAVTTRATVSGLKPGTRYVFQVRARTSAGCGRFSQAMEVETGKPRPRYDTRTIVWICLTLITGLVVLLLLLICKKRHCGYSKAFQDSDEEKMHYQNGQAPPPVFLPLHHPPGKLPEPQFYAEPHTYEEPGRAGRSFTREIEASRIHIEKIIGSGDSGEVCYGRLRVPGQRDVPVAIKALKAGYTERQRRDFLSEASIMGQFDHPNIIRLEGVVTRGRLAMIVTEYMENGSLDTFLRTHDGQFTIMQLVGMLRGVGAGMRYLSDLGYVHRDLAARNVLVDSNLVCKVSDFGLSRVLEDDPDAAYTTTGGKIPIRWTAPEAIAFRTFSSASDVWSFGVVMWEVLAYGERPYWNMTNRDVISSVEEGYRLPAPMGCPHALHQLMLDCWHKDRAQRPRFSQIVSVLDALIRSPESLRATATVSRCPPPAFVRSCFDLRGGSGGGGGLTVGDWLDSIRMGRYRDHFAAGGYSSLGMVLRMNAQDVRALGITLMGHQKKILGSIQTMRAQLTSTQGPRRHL

[3] = target: T2, Muscle, skeletal receptor tyrosine-protein kinase (Homo sapiens) (UniProt O15146); assay: Inhibition of MUSK (unknown origin) at 0.5 uM relative to control
T2 sequence (whole entry): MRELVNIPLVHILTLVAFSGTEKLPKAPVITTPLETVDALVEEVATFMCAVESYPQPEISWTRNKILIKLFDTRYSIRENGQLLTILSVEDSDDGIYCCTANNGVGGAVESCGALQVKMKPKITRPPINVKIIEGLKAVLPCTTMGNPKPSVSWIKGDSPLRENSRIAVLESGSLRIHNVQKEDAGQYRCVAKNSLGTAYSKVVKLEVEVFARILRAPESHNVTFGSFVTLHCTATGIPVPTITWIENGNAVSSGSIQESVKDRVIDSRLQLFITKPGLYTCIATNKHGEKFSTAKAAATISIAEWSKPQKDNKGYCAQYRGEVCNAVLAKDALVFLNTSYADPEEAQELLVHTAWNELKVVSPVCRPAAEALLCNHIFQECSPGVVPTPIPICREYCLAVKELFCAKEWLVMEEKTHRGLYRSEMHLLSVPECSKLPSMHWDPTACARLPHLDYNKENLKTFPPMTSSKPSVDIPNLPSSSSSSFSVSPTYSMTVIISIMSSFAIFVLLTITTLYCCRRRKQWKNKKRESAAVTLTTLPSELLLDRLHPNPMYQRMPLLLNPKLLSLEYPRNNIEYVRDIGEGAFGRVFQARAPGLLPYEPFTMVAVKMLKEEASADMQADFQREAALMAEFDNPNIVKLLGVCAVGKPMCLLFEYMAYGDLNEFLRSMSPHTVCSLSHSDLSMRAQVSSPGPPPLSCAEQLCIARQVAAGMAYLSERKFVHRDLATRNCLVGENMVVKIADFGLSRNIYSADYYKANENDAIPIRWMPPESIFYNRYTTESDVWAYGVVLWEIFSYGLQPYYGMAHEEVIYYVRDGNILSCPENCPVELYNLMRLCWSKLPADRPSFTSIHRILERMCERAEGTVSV

[4] = target: Homeodomain-interacting protein kinase 3 (Homo sapiens) (UniProt Q9H422); assay: Inhibition of HIPK3 (unknown origin) assessed as effect on HIPK3 protein level by Western blotting analysis
Sequence of Homeodomain-interacting protein kinase 3 (Homo sapiens) (Q9H422 whole entry, looked up): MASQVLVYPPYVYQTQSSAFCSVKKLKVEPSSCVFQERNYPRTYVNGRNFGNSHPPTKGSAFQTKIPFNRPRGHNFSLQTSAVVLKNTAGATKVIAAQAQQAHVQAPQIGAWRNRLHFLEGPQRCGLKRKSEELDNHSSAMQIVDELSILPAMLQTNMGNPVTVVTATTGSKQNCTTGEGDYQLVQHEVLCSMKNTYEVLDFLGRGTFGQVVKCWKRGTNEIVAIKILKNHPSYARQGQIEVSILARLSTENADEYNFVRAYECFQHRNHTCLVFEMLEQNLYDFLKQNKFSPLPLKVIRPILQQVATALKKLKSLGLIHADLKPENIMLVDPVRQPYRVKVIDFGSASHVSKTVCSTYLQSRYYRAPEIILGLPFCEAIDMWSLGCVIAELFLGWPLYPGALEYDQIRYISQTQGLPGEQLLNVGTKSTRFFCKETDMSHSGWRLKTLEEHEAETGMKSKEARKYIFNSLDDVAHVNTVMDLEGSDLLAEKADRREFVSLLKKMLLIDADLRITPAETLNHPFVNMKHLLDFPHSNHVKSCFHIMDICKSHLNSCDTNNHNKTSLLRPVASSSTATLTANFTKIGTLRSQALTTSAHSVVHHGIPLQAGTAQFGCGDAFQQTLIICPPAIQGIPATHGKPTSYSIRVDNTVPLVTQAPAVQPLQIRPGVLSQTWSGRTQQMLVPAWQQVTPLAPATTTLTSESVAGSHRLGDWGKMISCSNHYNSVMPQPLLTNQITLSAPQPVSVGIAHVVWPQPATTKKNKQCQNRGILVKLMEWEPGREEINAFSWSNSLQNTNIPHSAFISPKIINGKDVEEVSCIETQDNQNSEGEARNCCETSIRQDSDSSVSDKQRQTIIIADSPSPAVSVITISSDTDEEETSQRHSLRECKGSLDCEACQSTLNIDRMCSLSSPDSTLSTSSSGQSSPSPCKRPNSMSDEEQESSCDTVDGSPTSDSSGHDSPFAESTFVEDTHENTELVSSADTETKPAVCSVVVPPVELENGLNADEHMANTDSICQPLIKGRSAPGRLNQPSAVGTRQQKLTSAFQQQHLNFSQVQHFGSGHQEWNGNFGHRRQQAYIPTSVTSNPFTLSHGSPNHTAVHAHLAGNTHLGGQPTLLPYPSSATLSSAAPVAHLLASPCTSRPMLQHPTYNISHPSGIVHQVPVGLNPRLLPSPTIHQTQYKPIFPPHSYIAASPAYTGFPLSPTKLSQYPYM

[5] = target: Homeodomain-interacting protein kinase 1 (Homo sapiens) (UniProt Q86Z02); assay: Inhibition of HIPK1 (unknown origin) assessed as effect on HIPK1 protein level by Western blotting analysis
Sequence of Homeodomain-interacting protein kinase 1 (Homo sapiens) (Q86Z02 whole entry, looked up): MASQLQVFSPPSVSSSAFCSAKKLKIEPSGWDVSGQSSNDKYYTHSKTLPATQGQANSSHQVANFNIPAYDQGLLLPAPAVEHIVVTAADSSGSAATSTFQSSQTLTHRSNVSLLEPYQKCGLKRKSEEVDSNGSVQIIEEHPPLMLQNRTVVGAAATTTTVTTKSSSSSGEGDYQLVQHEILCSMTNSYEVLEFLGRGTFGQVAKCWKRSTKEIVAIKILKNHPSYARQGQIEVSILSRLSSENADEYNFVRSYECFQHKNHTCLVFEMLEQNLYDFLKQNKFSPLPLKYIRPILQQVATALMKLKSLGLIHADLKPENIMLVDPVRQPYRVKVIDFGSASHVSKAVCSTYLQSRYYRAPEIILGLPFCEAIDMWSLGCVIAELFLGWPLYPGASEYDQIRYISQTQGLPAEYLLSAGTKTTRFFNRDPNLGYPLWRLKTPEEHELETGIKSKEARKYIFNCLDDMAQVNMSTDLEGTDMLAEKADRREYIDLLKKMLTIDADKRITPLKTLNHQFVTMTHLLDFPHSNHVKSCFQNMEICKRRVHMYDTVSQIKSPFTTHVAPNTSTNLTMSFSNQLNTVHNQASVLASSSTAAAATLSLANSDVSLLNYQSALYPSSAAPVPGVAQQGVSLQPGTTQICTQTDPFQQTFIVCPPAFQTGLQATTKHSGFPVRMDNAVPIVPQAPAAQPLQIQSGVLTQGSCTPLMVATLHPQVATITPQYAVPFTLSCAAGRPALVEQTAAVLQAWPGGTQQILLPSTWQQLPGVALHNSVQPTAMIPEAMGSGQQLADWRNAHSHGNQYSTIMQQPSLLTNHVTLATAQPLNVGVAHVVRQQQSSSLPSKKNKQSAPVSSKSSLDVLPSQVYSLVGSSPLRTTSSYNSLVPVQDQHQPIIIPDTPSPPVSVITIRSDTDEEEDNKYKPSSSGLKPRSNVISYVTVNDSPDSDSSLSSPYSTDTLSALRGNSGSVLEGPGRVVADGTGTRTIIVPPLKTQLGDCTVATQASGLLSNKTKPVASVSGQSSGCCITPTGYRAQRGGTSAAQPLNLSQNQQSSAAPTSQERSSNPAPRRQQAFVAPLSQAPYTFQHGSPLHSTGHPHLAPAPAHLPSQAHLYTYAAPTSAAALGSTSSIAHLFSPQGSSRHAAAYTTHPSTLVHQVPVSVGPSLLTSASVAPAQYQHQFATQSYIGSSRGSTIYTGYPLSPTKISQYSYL

[6] = target: T3, Serine/threonine-protein kinase TAO3 (Homo sapiens) (UniProt Q9H2K8); assay: Inhibition of TAOK3 (unknown origin) at 0.5 uM relative to control
T3 sequence (whole entry): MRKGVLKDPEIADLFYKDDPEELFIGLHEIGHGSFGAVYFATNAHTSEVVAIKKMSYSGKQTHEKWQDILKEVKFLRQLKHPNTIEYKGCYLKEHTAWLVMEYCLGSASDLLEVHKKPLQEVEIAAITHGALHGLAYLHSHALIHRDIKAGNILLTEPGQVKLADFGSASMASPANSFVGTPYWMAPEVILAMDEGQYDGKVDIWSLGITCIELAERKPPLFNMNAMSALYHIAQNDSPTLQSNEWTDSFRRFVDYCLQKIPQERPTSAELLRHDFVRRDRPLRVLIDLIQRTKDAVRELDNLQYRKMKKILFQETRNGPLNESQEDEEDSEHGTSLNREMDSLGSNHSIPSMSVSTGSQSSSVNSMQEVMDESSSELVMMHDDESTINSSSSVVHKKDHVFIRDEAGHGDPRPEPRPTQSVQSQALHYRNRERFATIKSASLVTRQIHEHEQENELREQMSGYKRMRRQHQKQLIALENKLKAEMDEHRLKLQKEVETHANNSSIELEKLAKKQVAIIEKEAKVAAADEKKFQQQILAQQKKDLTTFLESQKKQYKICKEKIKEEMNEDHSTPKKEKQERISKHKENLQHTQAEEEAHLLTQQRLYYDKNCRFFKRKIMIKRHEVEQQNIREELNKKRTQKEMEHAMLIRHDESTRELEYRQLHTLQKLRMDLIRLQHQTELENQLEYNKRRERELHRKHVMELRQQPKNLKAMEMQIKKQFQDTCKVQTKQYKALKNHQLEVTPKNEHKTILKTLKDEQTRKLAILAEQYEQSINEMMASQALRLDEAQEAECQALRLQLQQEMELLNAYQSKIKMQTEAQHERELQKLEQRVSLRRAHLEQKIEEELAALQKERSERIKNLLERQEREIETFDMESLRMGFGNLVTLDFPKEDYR

Sequence of Platelet-derived growth factor receptor beta (Homo sapiens) (P09619 whole entry): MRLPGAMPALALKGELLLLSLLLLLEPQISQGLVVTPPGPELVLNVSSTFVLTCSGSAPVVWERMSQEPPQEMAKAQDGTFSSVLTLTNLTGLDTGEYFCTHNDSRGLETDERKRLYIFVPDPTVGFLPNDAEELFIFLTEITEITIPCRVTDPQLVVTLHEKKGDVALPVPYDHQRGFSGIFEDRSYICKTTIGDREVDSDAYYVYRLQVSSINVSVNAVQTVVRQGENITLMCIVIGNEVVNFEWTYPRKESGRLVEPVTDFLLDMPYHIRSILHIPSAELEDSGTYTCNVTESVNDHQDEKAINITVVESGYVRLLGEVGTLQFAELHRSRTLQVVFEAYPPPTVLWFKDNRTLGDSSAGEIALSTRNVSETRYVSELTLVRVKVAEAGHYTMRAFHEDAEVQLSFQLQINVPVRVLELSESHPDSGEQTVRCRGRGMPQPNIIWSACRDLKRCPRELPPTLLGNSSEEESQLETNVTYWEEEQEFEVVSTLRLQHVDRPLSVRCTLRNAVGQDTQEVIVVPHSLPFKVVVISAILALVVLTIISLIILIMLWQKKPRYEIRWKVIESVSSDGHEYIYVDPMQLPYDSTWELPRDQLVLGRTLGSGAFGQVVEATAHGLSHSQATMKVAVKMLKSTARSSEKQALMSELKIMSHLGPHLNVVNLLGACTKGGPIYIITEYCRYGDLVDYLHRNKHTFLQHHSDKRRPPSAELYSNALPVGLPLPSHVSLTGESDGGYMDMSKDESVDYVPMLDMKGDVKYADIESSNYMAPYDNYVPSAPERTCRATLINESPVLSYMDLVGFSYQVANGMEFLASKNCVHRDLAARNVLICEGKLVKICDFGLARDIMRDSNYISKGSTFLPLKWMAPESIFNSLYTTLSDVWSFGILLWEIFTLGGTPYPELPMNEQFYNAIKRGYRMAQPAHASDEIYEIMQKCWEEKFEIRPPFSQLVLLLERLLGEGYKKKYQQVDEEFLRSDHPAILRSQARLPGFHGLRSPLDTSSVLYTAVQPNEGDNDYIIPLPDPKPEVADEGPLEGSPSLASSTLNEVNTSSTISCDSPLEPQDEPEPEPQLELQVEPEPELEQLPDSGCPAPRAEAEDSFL

| inhibition [1] [%] | inhibition [2] [%] | inhibition [3] [%] | Activity [4] | Activity [5] | inhibition [6] [%] | SMILES |
| --- | --- | --- | --- | --- | --- | --- |
| 60 | 51 | 25 | – | – | – | CNC(=O)c1cc(Oc2ccc(NC(=O)c3n[nH]nc3-c3ccc(F)cc3)cc2)ccn1 |
| – | – | 97 | inactive | inactive | – | CNC(=O)c1cc(Oc2ccc(NC(=O)c3nc(SC)[nH]c3-c3ccc(F)cc3)cc2)ccn1 |
| 61 | – | 51 | – | – | 55 | CNC(=O)c1cc(Oc2ccc(NC(=O)c3nc(NC)sc3-c3ccc(F)cc3)cc2)ccn1 |
| – | – | 34 | – | – | – | CNC(=O)c1cc(Oc2ccc(NC(=O)c3nc(C(F)(F)F)sc3-c3ccc(F)cc3)cc2)ccn1 |
| – | 54 | 70 | inactive | inactive | – | CNC(=O)c1cc(Oc2ccc(NC(=O)c3nc(S(C)(=O)=O)sc3-c3ccc(F)cc3)cc2)ccn1 |
| 55 | 54 | – | inactive | inactive | 39 | CNC(=O)c1cc(Oc2ccc(NC(=O)c3nc(SC)oc3-c3ccc(F)cc3)cc2)ccn1 |
| 70 | – | 29 | – | – | – | CNC(=O)c1cc(Oc2ccc(NC(=O)c3nc(SC)n(CCN(C)C)c3-c3ccc(F)cc3)cc2)ccn1 |
| 40 | – | – | – | – | 40 | CNC(=O)c1cc(Oc2ccc(NC(=O)c3nc(SC)oc3-c3ccc(F)cc3)cc2F)ccn1 |
